According to ChEMBL document CHEMBL4387741, “Optimization of novel reversible Bruton's tyrosine kinase inhibitors identified using Tethering-fragment-based screens” (Bioorg Med Chem, 2019):

Legend:
[1] = biological target: Mitogen-activated protein kinase kinase kinase kinase 2 (Homo sapiens) (UniProt Q12851); test: Inhibition of wild-type human partial length MAP4K2 (M1 to G318 residues) expressed in mammalian expression system at 1 uM by Kinomescan method relative to control
[2] = biological target: Dual specificity mitogen-activated protein kinase kinase 6 (Homo sapiens) (UniProt P52564); test: Inhibition of wild-type human partial length MEK6 (K36 to D334 residues) expressed in bacterial expression system at 1 uM by Kinomescan method relative to control
[3] = biological target: Homeodomain-interacting protein kinase 1 (Homo sapiens) (UniProt Q86Z02); test: Inhibition of wild-type human partial length HIPK1 (M146 to I555 residues) expressed in mammalian expression system at 1 uM by Kinomescan method relative to control
[4] = biological target: Mitogen-activated protein kinase kinase kinase 20 (Homo sapiens) (UniProt Q9NYL2); test: Inhibition of wild-type human partial length ZAK (M1 to L331 residues) expressed in bacterial expression system at 1 uM by Kinomescan method relative to control
[5] = biological target: Epidermal growth factor receptor (Homo sapiens) (UniProt P00533); test: Inhibition of wild-type human partial length EGFR (R669 to V1011 residues) expressed in bacterial expression system at 1 uM by Kinomescan method relative to control
[6] = biological target: Macrophage colony-stimulating factor 1 receptor (Homo sapiens) (UniProt P07333); test: Inhibition of wild-type human partial length CSF1R (I564 to S939 residues) expressed in bacterial expression system at 1 uM by Kinomescan method relative to control
[7] = biological target: Phosphatidylinositol 4-kinase beta (Homo sapiens) (UniProt Q9UBF8); test: Inhibition of wild-type human full length PIK4CB (M1 to M828 residues) expressed in mammalian expression system at 1 uM by Kinomescan method relative to control
[8] = test system: Tyrosine-protein kinase ABL1 (Homo sapiens), P00519 [T315I]; test: Inhibition of human phosphorylated ABL1 T315I mutant (S229 to K512 residues) expressed in mammalian expression system at 1 uM by Kinomescan method relative to control
[9] = biological target: Fibroblast growth factor receptor 4 (Homo sapiens) (UniProt P22455); test: Inhibition of wild-type human partial length FGFR4 (G402 to E713 residues) expressed in bacterial expression system at 1 uM by Kinomescan method relative to control
[10] = biological target: MAP/microtubule affinity-regulating kinase 4 (Homo sapiens) (UniProt Q96L34); test: Inhibition of wild-type human partial length MARK4 (K29 to G340 residues) expressed in bacterial expression system at 1 uM by Kinomescan method relative to control
[11] = biological target: Serine/threonine-protein kinase Nek7 (Homo sapiens) (UniProt Q8TDX7); test: Inhibition of wild-type human full length NEK7 (M1 to S302 residues) expressed in bacterial expression system at 10 uM by Kinomescan method relative to control
[12] = biological target: Tyrosine-protein kinase Lyn (Homo sapiens) (UniProt P07948); test: Inhibition of wild-type human partial length LYN (C219 to Q511 residues) expressed in bacterial expression system at 10 uM by Kinomescan method relative to control
[13] = biological target: MAP kinase-interacting serine/threonine-protein kinase 1 (Homo sapiens) (UniProt Q9BUB5); test: Inhibition of wild-type human full length MKNK1 (M1 to L424 residues) expressed in mammalian expression system at 10 uM by Kinomescan method relative to control
[14] = biological target: Protein-tyrosine kinase 2-beta (Homo sapiens) (UniProt Q14289); test: Inhibition of wild-type human full length PYK2 (M1 to E967 residues) expressed in bacterial expression system at 10 uM by Kinomescan method relative to control
[15] = biological target: STE20/SPS1-related proline-alanine-rich protein kinase (Homo sapiens) (UniProt Q9UEW8); test: Inhibition of wild-type human partial length STK39 (P43 to I357 residues) expressed in mammalian expression system at 10 uM by Kinomescan method relative to control
[16] = biological target: High affinity nerve growth factor receptor (Homo sapiens) (UniProt P04629); test: Inhibition of wild-type human partial length TRKA (G475 to G790 residues) expressed in mammalian expression system at 10 uM by Kinomescan method relative to control
[17] = biological target: CDK4/Cyclin D3 (Homo sapiens) (UniProt P11802+P30281); test: Inhibition of wild-type human full length CDK4/cyclinD3 (M1 to E303 residues) expressed in mammalian expression system at 10 uM by Kinomescan method relative to control
[18] = biological target: Tyrosine-protein kinase ABL2 (Homo sapiens) (UniProt P42684); test: Inhibition of wild-type human ABL2 (A248 to G542 residues) expressed in bacterial expression system at 10 uM by Kinomescan method relative to control
[19] = biological target: Tyrosine-protein kinase Fyn (Homo sapiens) (UniProt P06241); test: Inhibition of wild-type human partial length FYN (T243 to L534 residues) expressed in bacterial expression system at 10 uM by Kinomescan method relative to control
[20] = biological target: Casein kinase I isoform epsilon (Homo sapiens) (UniProt P49674); test: Inhibition of wild-type human full length CSNK1E (M1 to K416 residues) expressed in bacterial expression system at 10 uM by Kinomescan method relative to control
[21] = biological target: Ribosomal protein S6 kinase alpha-6 (Homo sapiens) (UniProt Q9UK32); test: Inhibition of wild-type human partial length C-terminal RSK4 kinase domain 2 (I401 to Y711 residues) expressed in bacterial expression system at 10 uM by Kinomescan method relative to control
[22] = biological target: Dual specificity protein kinase CLK1 (Homo sapiens) (UniProt P49759); test: Inhibition of wild-type human full length CLK1 (M1 to I484 residues) expressed in bacterial expression system at 10 uM by Kinomescan method relative to control
[23] = biological target: Mast/stem cell growth factor receptor Kit (Homo sapiens) (UniProt P10721); test: Inhibition of wild-type human partial length autoinhibited KIT (Y545 to D952 residues) expressed in mammalian expression system at 10 uM by Kinomescan method relative to control
[24] = biological target: Mitogen-activated protein kinase kinase kinase 19 (Homo sapiens) (UniProt Q56UN5); test: Inhibition of wild-type human partial length YSK4 (T1019 to H1328 residues) expressed in mammalian expression system at 10 uM by Kinomescan method relative to control
[25] = biological target: Transient receptor potential cation channel subfamily M member 6 (Homo sapiens) (UniProt Q9BX84); test: Inhibition of wild-type human partial length TRPM6 (Q1723 to I1998 residues) expressed in mammalian expression system at 10 uM by Kinomescan method relative to control
[26] = biological target: LIM domain kinase 1 (Homo sapiens) (UniProt P53667); test: Inhibition of wild-type human full length LIMK1 (M1 to D647 residues) expressed in bacterial expression system at 10 uM by Kinomescan method relative to control
[27] = biological target: Mitogen-activated protein kinase 9 (Homo sapiens) (UniProt P45984); test: Inhibition of wild-type human full length JNK2 (M1 to Q382 residues) expressed in mammalian expression system at 10 uM by Kinomescan method relative to control
Mitogen-activated protein kinase 9 (Homo sapiens), sequence (P45984 whole entry, looked up, the tested form may be a part): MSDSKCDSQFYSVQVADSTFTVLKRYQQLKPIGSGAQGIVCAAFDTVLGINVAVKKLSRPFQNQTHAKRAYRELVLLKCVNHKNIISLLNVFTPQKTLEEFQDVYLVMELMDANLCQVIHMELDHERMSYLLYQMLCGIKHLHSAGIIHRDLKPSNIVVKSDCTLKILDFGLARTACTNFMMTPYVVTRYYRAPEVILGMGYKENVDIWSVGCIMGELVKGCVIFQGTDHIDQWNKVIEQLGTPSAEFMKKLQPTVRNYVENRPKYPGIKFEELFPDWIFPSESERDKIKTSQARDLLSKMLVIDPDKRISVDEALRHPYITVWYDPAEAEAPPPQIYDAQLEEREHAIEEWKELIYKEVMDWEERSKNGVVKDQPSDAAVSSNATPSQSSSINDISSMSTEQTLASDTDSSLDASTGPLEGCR

Phosphatidylinositol 4-kinase beta (Homo sapiens), sequence (Q9UBF8 2-816 limits assumed): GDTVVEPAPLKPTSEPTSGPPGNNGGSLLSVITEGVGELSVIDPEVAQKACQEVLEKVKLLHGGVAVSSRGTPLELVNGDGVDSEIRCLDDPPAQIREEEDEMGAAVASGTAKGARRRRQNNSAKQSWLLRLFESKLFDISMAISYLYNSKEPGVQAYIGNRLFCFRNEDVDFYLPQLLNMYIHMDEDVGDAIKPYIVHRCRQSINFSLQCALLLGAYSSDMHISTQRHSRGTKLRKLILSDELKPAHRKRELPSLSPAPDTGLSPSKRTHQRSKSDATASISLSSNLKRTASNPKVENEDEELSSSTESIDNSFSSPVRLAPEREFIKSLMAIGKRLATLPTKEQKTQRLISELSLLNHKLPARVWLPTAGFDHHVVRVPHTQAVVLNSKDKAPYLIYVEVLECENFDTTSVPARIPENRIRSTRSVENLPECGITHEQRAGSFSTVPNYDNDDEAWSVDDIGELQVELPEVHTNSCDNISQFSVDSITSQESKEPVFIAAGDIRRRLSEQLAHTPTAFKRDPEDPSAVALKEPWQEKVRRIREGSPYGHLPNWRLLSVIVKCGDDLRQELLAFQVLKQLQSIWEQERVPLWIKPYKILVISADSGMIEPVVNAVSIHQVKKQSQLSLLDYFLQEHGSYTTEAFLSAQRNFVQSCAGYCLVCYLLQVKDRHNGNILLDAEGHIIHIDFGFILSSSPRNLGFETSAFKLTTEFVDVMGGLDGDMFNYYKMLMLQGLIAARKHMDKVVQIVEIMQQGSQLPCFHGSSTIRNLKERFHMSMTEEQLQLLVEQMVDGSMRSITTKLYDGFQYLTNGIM
Casein kinase I isoform epsilon (Homo sapiens), sequence (P49674 whole entry, looked up, the tested form may be a part, canonical isoform): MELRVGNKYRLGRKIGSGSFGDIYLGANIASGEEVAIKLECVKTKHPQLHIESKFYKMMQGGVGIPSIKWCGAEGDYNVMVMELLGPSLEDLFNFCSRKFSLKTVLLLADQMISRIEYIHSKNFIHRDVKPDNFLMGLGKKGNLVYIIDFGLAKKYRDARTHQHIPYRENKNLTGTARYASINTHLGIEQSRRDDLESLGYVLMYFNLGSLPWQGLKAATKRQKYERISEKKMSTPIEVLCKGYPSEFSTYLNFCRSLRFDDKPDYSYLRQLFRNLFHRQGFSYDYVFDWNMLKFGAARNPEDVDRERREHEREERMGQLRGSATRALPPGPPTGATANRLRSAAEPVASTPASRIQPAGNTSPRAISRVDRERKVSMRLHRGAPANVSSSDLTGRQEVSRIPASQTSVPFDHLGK
Mitogen-activated protein kinase kinase kinase kinase 2 (Homo sapiens), sequence (Q12851 whole entry, the tested form may be a part): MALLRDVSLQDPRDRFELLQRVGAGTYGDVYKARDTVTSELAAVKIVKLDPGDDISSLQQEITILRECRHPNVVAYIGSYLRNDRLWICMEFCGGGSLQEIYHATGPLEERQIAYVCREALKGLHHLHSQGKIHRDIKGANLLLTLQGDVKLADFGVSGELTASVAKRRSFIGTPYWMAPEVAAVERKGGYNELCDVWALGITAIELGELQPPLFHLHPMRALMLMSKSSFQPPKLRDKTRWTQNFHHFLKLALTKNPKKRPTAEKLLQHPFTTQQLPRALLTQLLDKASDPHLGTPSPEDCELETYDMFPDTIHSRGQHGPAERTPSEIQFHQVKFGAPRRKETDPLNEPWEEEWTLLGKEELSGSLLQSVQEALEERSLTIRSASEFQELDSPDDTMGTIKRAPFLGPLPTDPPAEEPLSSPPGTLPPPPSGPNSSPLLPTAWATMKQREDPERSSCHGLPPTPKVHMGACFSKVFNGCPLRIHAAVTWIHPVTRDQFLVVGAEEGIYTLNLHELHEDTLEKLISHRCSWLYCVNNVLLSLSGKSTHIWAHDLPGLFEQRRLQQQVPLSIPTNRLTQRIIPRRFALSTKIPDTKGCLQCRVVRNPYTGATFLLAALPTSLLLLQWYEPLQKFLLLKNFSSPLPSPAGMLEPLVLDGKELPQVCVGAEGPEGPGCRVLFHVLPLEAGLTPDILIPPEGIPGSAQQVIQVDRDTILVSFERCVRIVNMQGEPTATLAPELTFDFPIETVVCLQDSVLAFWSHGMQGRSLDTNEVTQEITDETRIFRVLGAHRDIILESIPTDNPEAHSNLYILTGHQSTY
Fibroblast growth factor receptor 4 (Homo sapiens), sequence (P22455 22-802 limits assumed): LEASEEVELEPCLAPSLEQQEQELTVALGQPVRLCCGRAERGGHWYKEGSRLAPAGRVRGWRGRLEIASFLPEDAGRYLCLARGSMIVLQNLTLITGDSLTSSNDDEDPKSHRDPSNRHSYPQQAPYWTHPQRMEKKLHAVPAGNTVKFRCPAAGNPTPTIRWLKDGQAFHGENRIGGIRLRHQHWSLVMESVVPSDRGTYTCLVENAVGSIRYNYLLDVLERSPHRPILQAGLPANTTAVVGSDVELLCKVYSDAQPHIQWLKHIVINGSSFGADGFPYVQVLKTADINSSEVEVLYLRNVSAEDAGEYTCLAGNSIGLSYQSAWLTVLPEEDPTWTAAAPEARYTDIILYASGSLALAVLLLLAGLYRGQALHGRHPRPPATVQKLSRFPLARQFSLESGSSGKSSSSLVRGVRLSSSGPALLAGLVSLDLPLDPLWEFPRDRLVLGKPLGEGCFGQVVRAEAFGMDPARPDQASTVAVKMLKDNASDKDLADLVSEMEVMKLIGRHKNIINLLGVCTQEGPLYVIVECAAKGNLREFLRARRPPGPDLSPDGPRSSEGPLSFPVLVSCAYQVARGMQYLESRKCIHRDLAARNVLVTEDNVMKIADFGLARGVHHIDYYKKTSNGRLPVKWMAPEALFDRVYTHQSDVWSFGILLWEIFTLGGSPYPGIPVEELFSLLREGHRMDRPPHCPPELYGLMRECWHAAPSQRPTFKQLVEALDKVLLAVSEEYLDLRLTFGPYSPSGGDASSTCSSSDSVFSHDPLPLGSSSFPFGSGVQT
Mast/stem cell growth factor receptor Kit (Homo sapiens), sequence (P10721 whole entry, the tested form may be a part): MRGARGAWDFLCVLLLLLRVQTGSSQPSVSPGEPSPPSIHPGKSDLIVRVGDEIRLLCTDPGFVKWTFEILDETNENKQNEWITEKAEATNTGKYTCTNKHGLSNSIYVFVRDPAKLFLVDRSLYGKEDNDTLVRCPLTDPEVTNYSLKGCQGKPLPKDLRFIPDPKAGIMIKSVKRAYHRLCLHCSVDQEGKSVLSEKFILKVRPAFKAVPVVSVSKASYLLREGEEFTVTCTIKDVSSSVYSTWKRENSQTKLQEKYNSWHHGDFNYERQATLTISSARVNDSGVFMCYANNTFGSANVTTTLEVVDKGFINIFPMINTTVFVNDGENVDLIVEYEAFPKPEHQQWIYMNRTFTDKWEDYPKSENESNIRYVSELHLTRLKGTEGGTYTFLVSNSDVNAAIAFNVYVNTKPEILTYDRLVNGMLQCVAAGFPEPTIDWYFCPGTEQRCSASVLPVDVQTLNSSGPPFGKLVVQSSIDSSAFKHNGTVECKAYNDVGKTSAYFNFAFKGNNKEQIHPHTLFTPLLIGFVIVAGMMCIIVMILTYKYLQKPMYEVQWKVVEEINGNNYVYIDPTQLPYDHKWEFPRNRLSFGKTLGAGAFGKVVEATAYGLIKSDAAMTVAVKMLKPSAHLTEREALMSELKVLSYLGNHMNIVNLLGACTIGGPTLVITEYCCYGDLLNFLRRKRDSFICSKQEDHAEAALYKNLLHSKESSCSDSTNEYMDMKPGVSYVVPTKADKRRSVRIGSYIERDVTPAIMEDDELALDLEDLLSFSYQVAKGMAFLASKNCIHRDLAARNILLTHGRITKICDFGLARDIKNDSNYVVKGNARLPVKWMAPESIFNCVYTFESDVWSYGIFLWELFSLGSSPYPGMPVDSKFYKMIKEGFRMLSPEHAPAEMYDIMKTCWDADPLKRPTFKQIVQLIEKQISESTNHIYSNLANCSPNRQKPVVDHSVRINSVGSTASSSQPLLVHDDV
MAP kinase-interacting serine/threonine-protein kinase 1 (Homo sapiens), sequence (Q9BUB5 whole entry, looked up, the tested form may be a part): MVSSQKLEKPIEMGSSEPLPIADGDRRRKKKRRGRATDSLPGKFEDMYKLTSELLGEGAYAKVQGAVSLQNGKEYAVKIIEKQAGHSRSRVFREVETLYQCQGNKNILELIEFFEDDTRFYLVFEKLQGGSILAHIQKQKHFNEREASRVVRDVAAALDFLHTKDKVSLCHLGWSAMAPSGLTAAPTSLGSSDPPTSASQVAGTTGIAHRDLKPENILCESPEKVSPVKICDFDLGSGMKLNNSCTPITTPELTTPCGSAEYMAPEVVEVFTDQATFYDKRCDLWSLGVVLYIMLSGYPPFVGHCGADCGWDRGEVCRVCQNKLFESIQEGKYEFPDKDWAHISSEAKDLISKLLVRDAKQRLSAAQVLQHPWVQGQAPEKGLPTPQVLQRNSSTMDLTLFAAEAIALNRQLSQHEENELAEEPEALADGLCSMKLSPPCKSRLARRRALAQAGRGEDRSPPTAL
Dual specificity mitogen-activated protein kinase kinase 6 (Homo sapiens), sequence (P52564 whole entry, the tested form may be a part): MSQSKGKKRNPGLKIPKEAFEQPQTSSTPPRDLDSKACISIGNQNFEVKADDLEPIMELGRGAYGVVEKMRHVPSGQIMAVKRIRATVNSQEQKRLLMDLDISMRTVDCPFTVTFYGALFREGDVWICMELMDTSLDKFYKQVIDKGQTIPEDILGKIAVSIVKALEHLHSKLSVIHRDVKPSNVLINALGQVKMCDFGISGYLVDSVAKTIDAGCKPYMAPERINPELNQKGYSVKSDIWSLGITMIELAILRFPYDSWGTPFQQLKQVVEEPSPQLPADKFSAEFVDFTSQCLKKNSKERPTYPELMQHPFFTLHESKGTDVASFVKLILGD

SMILES: O=C(Nc1cccc([C@@H]2CN(c3ncnc4[nH]ccc34)CCN2CCO)c1)Nc1c(F)cccc1N1CCCC1
- inhibition [1]: 82%
- inhibition [2]: 92%
- inhibition [3]: 80%
- inhibition [4]: 100%
- inhibition [5]: 100%
- inhibition [6]: 67%
- inhibition [7]: 100%
- inhibition [8]: 93%
- inhibition [9]: 100%
- inhibition [10]: 77%

SMILES: O=C(Nc1cccc([C@H]2CCCN(c3ncnc4[nH]ccc34)C2)c1)Nc1ccccc1N1CCCC1
- inhibition [11]: 72%
- inhibition [12]: 66%
- inhibition [13]: 55%
- inhibition [14]: 96%
- inhibition [15]: 75%
- inhibition [16]: 26%
- inhibition [17]: 100%
- inhibition [18]: 89%
- inhibition [19]: 67%
- inhibition [20]: 90%
- inhibition [21]: 50%
- inhibition [22]: 68%
- inhibition [23]: 71%
- inhibition [24]: 2.3%
- inhibition [25]: 69%
- inhibition [26]: 97%
- inhibition [27]: 81%
